Reference: PubChem BioAssay (NCI)
Several values for one entry are separate records, joined by “and”; a condition that tells them apart may be missing. Equal values may be shown once.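 All cell lines were grown in 96-well plates and treated with compound for 48 hours. GI50 = concentration required for 50% inhibition of growth. At the TGI there is no net growth.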

Assays:
Assay in all cases: NCI tumour cell line growth inhibition, 48 h
HOP-18 NSCLC = tested on: HOP-18 NSCLC
XF 498 CNS = tested on: XF 498 CNS
M19-MEL melanoma = tested on: M19-MEL melanoma
SNB-78 CNS = tested on: SNB-78 CNS
RXF-631 renal = tested on: RXF-631 renal
DMS 114 small cell lung = tested on: DMS 114 small cell lung
DLD-1 colon = tested on: DLD-1 colon
P388/ADR leukemia = tested on: P388/ADR leukemia
MDA-N = tested on: MDA-N
MCF7 breast = tested on: MCF7 breast
SN12K1 renal = tested on: SN12K1 renal

SMILES	TGI (HOP-18 NSCLC) [µM]	TGI (XF 498 CNS) [µM]	TGI (M19-MEL melanoma) [µM]	TGI (SNB-78 CNS) [µM]	TGI (RXF-631 renal) [µM]	TGI (DMS 114 small cell lung) [µM]	TGI (DLD-1 colon) [µM]	TGI (P388/ADR leukemia) [µM]	GI50 (MDA-N)	TGI (MDA-N)	GI50 (MCF7 breast)	TGI (MCF7 breast)	TGI (SN12K1 renal) [µM]	GI50 (HOP-18 NSCLC) [µM]	GI50 (XF 498 CNS) [µM]	GI50 (M19-MEL melanoma) [µM]	GI50 (SNB-78 CNS) [µM]	GI50 (DLD-1 colon) [µM]	GI50 (RXF-631 renal) [µM]	GI50 (DMS 114 small cell lung) [µM]
CC(C)(C)[Si](Nc1ccccc1)(c1ccccc1)c1ccccc1	26.7	27.8	28.4	30.4	29.6	26.3	–	–	–	–	–	–	–	–	–	–	–	–	–	–
COC(=O)C1CCC(N2C(=O)CCC2C(=O)OC)=N1 (configuration not stated)	> 100	> 100	> 100	> 100	> 100	–	> 100	–	–	–	–	–	–	–	–	–	–	–	–	–
Cc1cccc(NC(=O)Cc2nc3ccccc3s2)c1C	–	> 100	> 100	–	> 100	> 100	> 100	–	–	–	–	–	–	–	–	–	–	–	–	–
O=C(O)C1=C(Cl)c2ccccc2S1(=O)=O	–	> 100	> 100	> 100	> 100	> 100	> 100	–	–	–	–	–	–	–	–	–	–	–	–	–
O/N=C1/C(=C/c2ccc(Cl)cc2)CCCC1C(NO)c1ccc(Cl)cc1 (configuration not stated)	55.1	60.1	54.7	48.5	41	81.8	> 100	–	–	–	–	–	–	–	–	–	–	–	–	–
CO[C@@]12[C@H](COC(N)=O)C3=C(C(=O)C(C)=C(N)C3=O)N1C[C@@H]1N[C@@H]12	7.59	–	–	–	–	5.08	17.2	16	2.11 µM and 2.67 µM	7.44 µM and 19.1 µM	0.215 µM and 0.0824 µM	8.6 µM and 15.1 µM and 47 µM	7.65	–	–	–	–	–	–	–
O/N=C1/C(=C/c2ccccc2)CCCC1C(NO)c1ccccc1 (configuration not stated)	> 100	99.2	> 100	> 100	> 100	> 100	–	–	–	–	–	–	–	–	–	–	–	–	–	–
COC(=O)NN=C1C(C)(C)C(=NNC(=O)OC)C1(C)C	> 100	> 100	> 63.3	> 100	> 100	> 56.7	> 100	–	–	–	–	–	–	–	–	–	–	–	–	–
O=C1c2c(O)cccc2C(C(=O)CCCC(=O)C2c3cccc(O)c3C(=O)c3c(O)cccc32)c2cccc(O)c21	0.828	0.226	4.17	0.785	3.99	0.502	7	–	–	3.39 µM	–	25 µM	–	–	–	–	–	–	–	–
CCCCCC/C=C/CCCCCCCc1cccc(O)c1C(=O)O	> 100	> 100	> 100	> 100	> 100	> 100	> 100	–	–	–	–	–	–	–	–	–	–	–	–	–
CCC[CH2][Sn]1([CH2]CCC)[O]CC([CH2][Sn]([c]2ccccc2)([c]2ccccc2)[c]2ccccc2)[O]1 (configuration not stated)	25.2	28.6	21.2	26.4	30.5	13.5	18.4	–	–	–	–	–	–	12.7	15.3	8.82	10.2	5.92	10.7	3.18
Cn1c(=O)c2[nH]cnc2n(CC(=O)O)c1=O	–	> 100	> 100	> 100	> 100	> 100	> 100	–	–	–	–	–	–	–	–	–	–	–	–	–
CN(Cc1ccccc1)c1nc(=[N+](C)C)ss1	> 100	> 100	> 100	> 100	> 100	> 100	> 100	–	–	–	–	–	–	–	–	–	–	–	–	–
c1ccc([P+](CCC[P+](c2ccccc2)(c2ccccc2)c2ccccc2)(c2ccccc2)c2ccccc2)cc1	> 100	77.9	> 100	> 100	> 100	71	> 100	–	–	–	6.79 µM	> 100 µM	–	–	–	–	–	–	–	–
C[C@@]1(CBr)C[C@@](C)(/C=C/Cl)[C@@H](Cl)C[C@H]1Cl	26.4	24.5	25.9	14	24.2	25.3	27.3	–	–	–	–	–	–	–	–	–	–	–	–	–
CC(=O)NNc1nc(C)c(C(/C=C/c2ccc(Cl)cc2)=N/NC(=S)NN)s1	> 100	> 100	> 100	> 100	> 100	> 100	> 100	–	–	–	–	–	–	–	–	–	–	–	–	–
CC(=O)OC1C/C(C)=C/[C@H](O)CC(C)/C=C/[C@@]2(C)CCC(C(C)(C)O)C12 (some centres not stated)	> 100	> 100	> 100	> 100	> 100	> 100	> 100	–	–	–	–	–	–	–	–	–	–	–	–	–
N#CNc1nc(C(=O)Nc2ccc(Cl)cc2)cc(-c2ccccc2)n1	> 100	> 100	> 100	> 100	> 100	> 100	> 100	–	–	–	–	–	–	–	–	–	–	–	–	–
